Common to all, as to type: biochemical
Test [1] concerns the target PI3Kγ (p120γ)(h) (Homo sapiens, UniProt P48736). Kind of test: Assay for phosphatidylinositol 3-kinase gamma (PI3Kγ) activity, PI3K-HTRF kit. The following applies: TR-FRET; enzyme 1.45 μg/ml, 10 μM PIP2, 10 μM ATP. In outline:
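Recombinant PI3Kγ (1.45 μg/ml final) preincubated ~10 min with compound, then reacted with 10 μM PIP2 and 10 μM ATP for 90 min at room temperature. PIP3 detected by HTRF (biotin-PIP3/Eu-PH domain/APC), 665/620 nm ratio after 6 h; IC50 from inhibition relative to controls.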

The target in test [2] is PI3Kα (p110α/p85α)(h) (Homo sapiens, UniProt P42336). Kind of test: Assay for phosphatidylinositol 3-kinase alpha (PI3Kα) activity, PI3K-HTRF kit. The settings on record: TR-FRET; enzyme 0.3625 μg/ml, 10 μM PIP2, 10 μM ATP.
Test [3] concerns the target PI3K β (p110β/p85α)(h) (Homo sapiens, UniProt P42338). Description: Assay for phosphatidylinositol 3-kinase beta (PI3Kβ) activity, PI3K-HTRF kit. The following applies: TR-FRET; enzyme 0.725 μg/ml, 10 μM PIP2, 10 μM ATP.
The target in test [4] is PI3Kδ (p110δ/p85α)(h) (Homo sapiens, UniProt O00329). Description: Assay for phosphatidylinositol 3-kinase delta (PI3Kδ) activity, PI3K-HTRF kit. The settings on record: TR-FRET; enzyme 0.725 μg/ml, 10 μM PIP2, 10 μM ATP.
PI3Kδ (p110δ/p85α)(h), sequence (O00329 whole entry): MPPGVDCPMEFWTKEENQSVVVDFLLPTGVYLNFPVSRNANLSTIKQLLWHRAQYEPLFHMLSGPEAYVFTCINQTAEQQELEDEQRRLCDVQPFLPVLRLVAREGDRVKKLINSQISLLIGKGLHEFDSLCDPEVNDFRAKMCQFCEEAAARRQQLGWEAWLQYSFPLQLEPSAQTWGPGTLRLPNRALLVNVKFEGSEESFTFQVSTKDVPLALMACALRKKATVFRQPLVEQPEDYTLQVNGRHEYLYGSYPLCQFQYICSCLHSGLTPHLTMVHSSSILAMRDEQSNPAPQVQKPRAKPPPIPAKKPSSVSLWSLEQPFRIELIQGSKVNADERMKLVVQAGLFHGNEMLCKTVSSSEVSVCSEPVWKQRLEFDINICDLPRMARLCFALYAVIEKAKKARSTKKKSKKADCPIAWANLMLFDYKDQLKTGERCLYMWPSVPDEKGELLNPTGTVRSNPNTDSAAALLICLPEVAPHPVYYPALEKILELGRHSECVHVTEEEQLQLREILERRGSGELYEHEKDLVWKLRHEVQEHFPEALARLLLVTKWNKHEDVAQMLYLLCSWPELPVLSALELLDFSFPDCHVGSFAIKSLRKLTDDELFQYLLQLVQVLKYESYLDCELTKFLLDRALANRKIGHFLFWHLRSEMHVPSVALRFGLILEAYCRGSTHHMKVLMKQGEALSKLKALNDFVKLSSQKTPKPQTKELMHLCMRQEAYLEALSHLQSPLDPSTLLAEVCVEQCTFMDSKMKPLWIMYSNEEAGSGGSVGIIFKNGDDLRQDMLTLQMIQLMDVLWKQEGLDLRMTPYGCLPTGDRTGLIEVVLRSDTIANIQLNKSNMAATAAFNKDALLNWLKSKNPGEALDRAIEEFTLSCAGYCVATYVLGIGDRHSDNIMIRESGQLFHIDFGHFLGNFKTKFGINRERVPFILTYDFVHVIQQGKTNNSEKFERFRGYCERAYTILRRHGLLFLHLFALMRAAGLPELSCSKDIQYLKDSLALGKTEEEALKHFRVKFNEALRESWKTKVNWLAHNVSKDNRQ
PI3Kδ (p110δ/p85α)(h), sequence (P27986 whole entry partner): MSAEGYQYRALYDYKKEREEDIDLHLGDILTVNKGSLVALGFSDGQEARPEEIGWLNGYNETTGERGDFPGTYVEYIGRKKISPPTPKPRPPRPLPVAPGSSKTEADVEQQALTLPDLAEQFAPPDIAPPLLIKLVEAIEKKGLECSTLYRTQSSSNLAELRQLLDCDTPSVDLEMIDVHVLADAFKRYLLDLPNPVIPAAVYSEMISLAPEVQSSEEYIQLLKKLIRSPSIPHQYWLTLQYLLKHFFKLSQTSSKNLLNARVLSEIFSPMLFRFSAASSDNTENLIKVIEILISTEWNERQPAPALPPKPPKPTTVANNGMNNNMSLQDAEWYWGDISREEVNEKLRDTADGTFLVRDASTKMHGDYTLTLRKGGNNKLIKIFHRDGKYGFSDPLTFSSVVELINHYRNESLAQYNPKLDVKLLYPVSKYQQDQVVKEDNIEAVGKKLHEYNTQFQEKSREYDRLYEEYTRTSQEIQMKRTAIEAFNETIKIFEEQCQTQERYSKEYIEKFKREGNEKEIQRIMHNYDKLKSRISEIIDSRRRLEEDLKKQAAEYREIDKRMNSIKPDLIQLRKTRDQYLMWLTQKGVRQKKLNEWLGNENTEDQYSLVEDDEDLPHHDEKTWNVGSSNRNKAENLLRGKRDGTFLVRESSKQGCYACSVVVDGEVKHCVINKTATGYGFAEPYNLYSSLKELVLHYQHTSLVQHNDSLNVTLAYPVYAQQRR

PI3K β (p110β/p85α)(h), sequence (P42338 whole entry): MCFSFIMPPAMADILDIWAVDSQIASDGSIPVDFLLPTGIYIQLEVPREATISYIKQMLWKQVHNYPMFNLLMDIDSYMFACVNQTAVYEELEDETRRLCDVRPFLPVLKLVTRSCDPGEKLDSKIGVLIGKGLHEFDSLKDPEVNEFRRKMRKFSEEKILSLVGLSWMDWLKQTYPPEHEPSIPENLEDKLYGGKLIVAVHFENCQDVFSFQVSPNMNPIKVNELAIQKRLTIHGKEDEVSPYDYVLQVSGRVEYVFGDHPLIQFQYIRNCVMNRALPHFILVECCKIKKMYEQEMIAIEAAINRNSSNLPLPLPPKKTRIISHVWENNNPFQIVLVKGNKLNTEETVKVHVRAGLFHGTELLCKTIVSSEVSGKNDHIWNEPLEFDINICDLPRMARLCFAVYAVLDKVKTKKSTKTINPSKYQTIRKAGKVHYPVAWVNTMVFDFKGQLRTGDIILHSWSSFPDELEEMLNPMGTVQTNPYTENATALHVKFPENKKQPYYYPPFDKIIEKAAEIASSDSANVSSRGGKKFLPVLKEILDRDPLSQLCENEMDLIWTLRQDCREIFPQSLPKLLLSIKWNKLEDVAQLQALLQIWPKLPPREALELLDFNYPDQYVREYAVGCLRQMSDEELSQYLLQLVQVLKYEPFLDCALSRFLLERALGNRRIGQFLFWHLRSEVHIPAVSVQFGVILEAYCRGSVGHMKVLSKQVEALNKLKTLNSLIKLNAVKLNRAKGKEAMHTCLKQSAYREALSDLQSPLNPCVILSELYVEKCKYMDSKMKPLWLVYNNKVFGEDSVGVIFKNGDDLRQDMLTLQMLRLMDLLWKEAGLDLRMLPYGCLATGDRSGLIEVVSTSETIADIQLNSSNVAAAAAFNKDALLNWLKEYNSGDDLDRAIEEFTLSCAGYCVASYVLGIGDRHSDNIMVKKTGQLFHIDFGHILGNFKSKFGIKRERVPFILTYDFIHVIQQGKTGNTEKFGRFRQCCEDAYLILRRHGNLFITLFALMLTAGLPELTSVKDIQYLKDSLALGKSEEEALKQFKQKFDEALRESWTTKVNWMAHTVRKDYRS
PI3K β (p110β/p85α)(h), sequence (P27986 whole entry partner): as the sequence (P27986 whole entry partner) above
PI3Kα (p110α/p85α)(h), sequence (P42336 whole entry): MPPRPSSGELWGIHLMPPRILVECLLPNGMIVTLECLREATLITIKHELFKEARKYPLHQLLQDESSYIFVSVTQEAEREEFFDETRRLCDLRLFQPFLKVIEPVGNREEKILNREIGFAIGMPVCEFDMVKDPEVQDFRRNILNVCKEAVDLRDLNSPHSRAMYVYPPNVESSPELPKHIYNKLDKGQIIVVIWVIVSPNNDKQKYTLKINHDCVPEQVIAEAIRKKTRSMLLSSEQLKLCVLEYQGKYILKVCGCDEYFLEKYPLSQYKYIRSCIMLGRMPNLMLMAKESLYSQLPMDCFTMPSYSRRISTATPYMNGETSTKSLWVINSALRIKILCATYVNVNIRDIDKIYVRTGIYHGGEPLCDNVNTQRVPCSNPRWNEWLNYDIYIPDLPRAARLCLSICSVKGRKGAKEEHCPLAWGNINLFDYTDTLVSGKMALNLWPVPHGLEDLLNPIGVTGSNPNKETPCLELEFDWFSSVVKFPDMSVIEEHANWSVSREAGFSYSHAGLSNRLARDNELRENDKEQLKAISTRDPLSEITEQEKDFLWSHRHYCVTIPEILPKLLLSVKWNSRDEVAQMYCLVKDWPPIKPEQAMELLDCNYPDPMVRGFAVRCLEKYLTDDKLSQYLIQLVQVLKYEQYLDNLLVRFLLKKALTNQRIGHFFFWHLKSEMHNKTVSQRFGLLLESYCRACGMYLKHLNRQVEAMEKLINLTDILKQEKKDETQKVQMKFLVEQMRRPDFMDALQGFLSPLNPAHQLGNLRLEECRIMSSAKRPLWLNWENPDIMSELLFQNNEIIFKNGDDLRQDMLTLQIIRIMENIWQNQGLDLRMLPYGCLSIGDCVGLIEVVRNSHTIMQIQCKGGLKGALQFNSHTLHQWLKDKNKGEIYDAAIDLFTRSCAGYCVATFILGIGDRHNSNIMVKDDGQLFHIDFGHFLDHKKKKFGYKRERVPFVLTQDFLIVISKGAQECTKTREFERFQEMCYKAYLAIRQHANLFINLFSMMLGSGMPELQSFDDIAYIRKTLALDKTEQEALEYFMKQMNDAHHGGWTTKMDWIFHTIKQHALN
PI3Kα (p110α/p85α)(h), sequence (P27986 whole entry partner): as the sequence (P27986 whole entry partner) above
PI3Kγ (p120γ)(h), sequence (P48736 whole entry, the tested form may be a part): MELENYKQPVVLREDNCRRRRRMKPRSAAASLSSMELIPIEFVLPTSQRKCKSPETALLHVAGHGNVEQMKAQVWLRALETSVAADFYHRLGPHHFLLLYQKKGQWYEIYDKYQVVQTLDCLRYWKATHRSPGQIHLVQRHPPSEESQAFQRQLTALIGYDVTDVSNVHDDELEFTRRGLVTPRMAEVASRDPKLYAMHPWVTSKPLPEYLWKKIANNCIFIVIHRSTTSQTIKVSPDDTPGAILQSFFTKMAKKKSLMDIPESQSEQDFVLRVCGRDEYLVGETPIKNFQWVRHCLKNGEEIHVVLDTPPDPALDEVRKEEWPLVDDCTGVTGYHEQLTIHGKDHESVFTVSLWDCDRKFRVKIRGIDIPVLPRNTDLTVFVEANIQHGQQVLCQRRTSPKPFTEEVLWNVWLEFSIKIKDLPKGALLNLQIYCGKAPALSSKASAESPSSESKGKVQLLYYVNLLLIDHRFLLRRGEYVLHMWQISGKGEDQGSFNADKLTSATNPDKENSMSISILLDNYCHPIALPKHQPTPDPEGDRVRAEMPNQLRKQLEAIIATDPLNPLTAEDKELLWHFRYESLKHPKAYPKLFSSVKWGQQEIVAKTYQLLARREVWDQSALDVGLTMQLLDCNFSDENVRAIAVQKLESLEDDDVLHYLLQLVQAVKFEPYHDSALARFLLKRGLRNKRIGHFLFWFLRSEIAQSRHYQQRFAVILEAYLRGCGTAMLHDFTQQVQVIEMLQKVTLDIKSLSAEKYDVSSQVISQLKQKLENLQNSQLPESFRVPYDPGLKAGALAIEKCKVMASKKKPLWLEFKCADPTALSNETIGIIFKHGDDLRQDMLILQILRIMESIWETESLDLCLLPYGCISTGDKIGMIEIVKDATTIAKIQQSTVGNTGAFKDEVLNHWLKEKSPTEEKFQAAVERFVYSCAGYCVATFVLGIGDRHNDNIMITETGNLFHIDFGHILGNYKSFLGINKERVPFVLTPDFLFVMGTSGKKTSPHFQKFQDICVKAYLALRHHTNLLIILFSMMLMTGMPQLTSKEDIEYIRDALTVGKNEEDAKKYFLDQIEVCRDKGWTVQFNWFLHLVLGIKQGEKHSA

`CNS(=O)(=O)c1ccc(-c2cncc3cc(/C=C4\SC(=O)NC4=O)oc23)cc1F` [Example 279, (Z)-4-[2-{(2,4-Dioxothiazolidin-5-ylidene)methyl}furo[3,2-c]pyridin-7-yl]-2-fluoro-N-methylbenzenesulfonamide]: the IC50 in test [1] worked out at 17 nM; in test [2], 40 nM; in test [3] it was 480 nM; in test [4], 747 nM.

For `N#Cc1ccc(C#Cc2cncc3cc(/C=C4\SC(=S)NC4=O)oc23)cc1` [Example 548, (Z)-4-([2-{(4-Oxo-2-thioxothiazolidin-5-ylidene)methyl}furo[3,2-c]pyridin-7-yl]ethynyl)benzonitrile], the IC50 in test [1] came to 25 nM; in test [2] it was 8 nM; in test [3] it was 138 nM; in test [4], 250 nM.

Turning to `O=C1NC(=O)/C(=C/c2cc3cncc(C#CC4CCCC4)c3o2)S1` [Example 435, (Z)-5-[{7-(Cyclopentylethynyl)furo[3,2-c]pyridin-2-yl}methylene]thiazolidine-2,4-dione], the IC50 was 48 nM in test [1], 58 nM in test [2], 4340 nM in test [3] and 4280 nM in test [4].

As to `O=C1NC(=S)S/C1=C\c1cc2cncc(C(=O)NCc3ccc(Cl)cc3)c2o1` [Example 427, (Z)—N-(4-Chlorobenzyl)-2-{(4-oxo-2-thioxothiazolidin-5-ylidene)methyl}furo[3,2-c]pyridine-7-carboxamide], the IC50 in test [1] amounted to 134 nM; in test [2], 62 nM; in test [3] it was 250 nM; in test [4] it was 1170 nM.

As for `COc1ncc(-c2cncc3cc(/C=C4\SC(=S)NC4=O)oc23)cc1C` [Example 225, (Z)-5-[{7-(6-Methoxy-5-methylpyridin-3-yl)furo[3,2-c]pyridin-2-yl}methylene]-2-thioxothiazolidin-4-one], the IC50 in test [1] was 43 nM; in test [2] it was 4 nM; in test [3], above 10000 nM; in test [4], above 10000 nM.

Take `COc1c(C)cc(-c2cncc3cc(/C=C4\SC(=S)NC4=O)oc23)cc1C` [Example 196, (Z)-5-[7-(4-Methoxy-3,5-dimethylphenyl)furo[3,2-c]pyridin-2-ylmethylene]-2-thioxothiazolidin-4-one]: the half-inhibitory concentration (IC50) in test [1] is 7 nM; in test [2] it was 10 nM; in test [3], above 10000 nM; in test [4] it was above 10000 nM.

Consider `O=C1NC(=O)/C(=C/c2cc3cncc(C#Cc4ccc(OC(F)(F)F)cc4)c3o2)S1` [Example 533], for which the IC50 is 37 nM in test [1], 14 nM in test [2], 3720 nM in test [3] and 2230 nM in test [4].

As for `O=C1NC(=S)S/C1=C\c1cc2cncc(C#CC3CC3)c2o1` [Example 475, (Z)-5-[{7-(Cyclopropylethynyl)furo[3,2-c]pyridin-2-yl}methylene]-2-thioxothiazolidin-4-one], the IC50 in test [1] was 10 nM; in test [2], 68 nM; in test [3], above 10000 nM; in test [4], above 10000 nM.

`COc1ccc(C#Cc2cncc3cc(/C=C4\SC(=S)NC4=O)oc23)cc1OC` [Example 512, (Z)-5-([7-{(3,4-Dimethoxyphenyl)ethynyl}furo[3,2-c]pyridin-2-yl]methylene)-2-thioxothiazolidin-4-one]: the IC50 in test [1] amounted to 17 nM; in test [2] it was 2 nM; in test [3], 82 nM; in test [4] it was 73 nM.

Turning to `COC(=O)c1cc(F)cc(-c2cncc3cc(/C=C4\SC(=S)NC4=O)oc23)c1` [Example 351, (Z)-Methyl 3-fluoro-5-[2-{(4-oxo-2-thioxothiazolidin-5-ylidene)methyl}furo[3,2-c]pyridin-7-yl]benzoate], the IC50 is 9 nM in test [1], 4 nM in test [2], above 10000 nM in test [3] and above 10000 nM in test [4].

For the compound `CSc1ccc(-c2cncc3cc(/C=C4\SC(=O)NC4=O)oc23)cc1` [Example 23, (Z)-5-([7-{4-(Methylthio)phenyl}furo[3,2-c]pyridin-2-yl]methylene)thiazolidine-2,4-dione], the 50% inhibitory concentration (IC50) in test [1] is 9 nM; in test [2], 43 nM; in test [3], above 10000 nM; in test [4], above 10000 nM.

Regarding `Cc1ccccc1C#Cc1cncc2cc(/C=C3\SC(=O)NC3=O)oc12` [Example 454, (Z)-5-[{7-(o-Tolylethynyl)furo[3,2-c]pyridin-2-yl}methylene]thiazolidine-2,4-dione], the IC50 was determined as 7 nM in test [1], 1 nM in test [2], 466 nM in test [3] and 143 nM in test [4].

In the case of `CS(=O)(=O)c1c(F)cc(-c2cncc3cc(/C=C4\SC(=S)NC4=O)oc23)cc1F` [Example 332, (Z)-5-([7-{3,5-Difluoro-4-(methylsulfonyl)phenyl}furo[3,2-c]pyridin-2-yl]methylene)-2-thioxothiazolidin-4-one], the IC50 in test [1] is 19 nM; in test [2] it was 10 nM; in test [3], above 10000 nM; in test [4], 9300 nM.

With `COc1ccc(NC(=O)c2cncc3cc(/C=C4\SC(=S)NC4=O)oc23)cc1` [Example 425, (Z)—N-(4-Methoxyphenyl)-2-{(4-oxo-2-thioxothiazolidin-5-ylidene)methyl}furo[3,2-c]pyridine-7-carboxamide], the IC50 came to 51 nM in test [1], 11 nM in test [2], 1140 nM in test [3] and 8330 nM in test [4].

Regarding `O=C1NC(=O)/C(=C/c2cc3cncc(-c4ccc(S(=O)(=O)NCCO)cc4)c3o2)S1` [Example 263, (Z)-4-[2-{(2,4-Dioxothiazolidin-5-ylidene)methyl}furo[3,2-c]pyridin-7-yl]-N-(2-hydroxyethyl)benzenesulfonamide], the IC50 in test [1] stood at 28 nM; in test [2], 16 nM; in test [3] it was 1400 nM; in test [4], 2500 nM.

For the compound `COc1cc(-c2cncc3cc(/C=C4\SC(=S)NC4=O)oc23)cc(Cl)c1O` [Example 217, (Z)-5-[{7-(3-Chloro-4-hydroxy-5-methoxyphenyl)furo[3,2-c]pyridin-2-yl}-methylene]-2-thioxothiazolidin-4-one], the IC50 in test [1] turned out to be 3 nM; in test [2] it was 1 nM; in test [3], 77 nM; in test [4], 563 nM.

With `CS(=O)(=O)c1ccc(-c2cncc3cc(/C=C4\SC(=O)NC4=O)oc23)cc1` [Example 40, (Z)-5-([7-{4-(Methylsulfonyl)phenyl}furo[3,2-c]pyridin-2-yl]methylene)thiazolidine-2,4-dione], the IC50 amounted to 28 nM in test [1], 8 nM in test [2], 177 nM in test [3] and 590 nM in test [4].

For “5-[{7-(p-Tolylethynyl)furo[3,2-c]pyridin-2-yl}methyl]thiazolidine-2,4-dione [Example 520]”, the IC50 in test [1] is 11 nM; in test [2] it was 15 nM; in test [3], 9740 nM; in test [4], above 10000 nM.

With `COc1ccccc1C#Cc1cncc2cc(/C=C3\SC(=S)NC3=O)oc12` [Example 486, (Z)-5-([7-{(2-Methoxyphenyl)ethynyl}furo[3,2-c]pyridin-2-yl]methylene)-2-thioxothiazolidin-4-one], the 50% inhibitory concentration (IC50) in test [1] is 14 nM; in test [2] it was 4 nM; in test [3], above 10000 nM; in test [4], above 10000 nM.

In the case of `COc1ccc(-c2cncc3cc(/C=C4\SC(=O)NC4=O)oc23)cc1` [Example 25, (Z)-5-[{7-(4-Methoxyphenyl)furo[3,2-c]pyridin-2-yl}methylene]thiazolidine-2,4-dione], the IC50 is 5 nM in test [1], 6 nM in test [2], above 10000 nM in test [3] and above 10000 nM in test [4].

Consider `COc1cc(C#Cc2cncc3cc(/C=C4\SC(=O)NC4=O)oc23)cc(OC)c1` [Example 450, (Z)-5-([7-{(3,5-Dimethoxyphenyl)ethynyl}furo[3,2-c]pyridin-2-yl]methylene)thiazolidine-2,4-dione], for which the IC50 in test [1] was 13 nM; in test [2] it was 8 nM; in test [3], 4650 nM; in test [4], above 10000 nM.

As to `O=C1NC(=O)/C(=C/c2cc3cncc(C#Cc4ccccc4)c3o2)S1` [Example 125, (Z)-5-[{7-(Phenylethynyl)furo[3,2-c]pyridin-2-yl}methylene]thiazolidine-2,4-dione], the IC50 in test [1] was 12 nM; in test [2], 58 nM; in test [3] it was above 10000 nM; in test [4] it was above 10000 nM.

Regarding `O=C1NC(=S)S/C1=C\c1cc2cncc(-c3cc(Cl)c(S(=O)(=O)N4CCOCC4)c(Cl)c3)c2o1` [Example 343, (Z)-5-([7-{3,5-Dichloro-4-(morpholinosulfonyl)phenyl}furo[3,2-c]pyridin-2-yl]methylene)-2-thioxothiazolidin-4-one], the IC50 in test [1] was 4 nM; in test [2], 19 nM; in test [3], above 10000 nM; in test [4] it was 53 nM.

Source of the values: US9493478B2, “Fused ring compound containing furan or salt thereof and pharmaceutical composition comprising same” (YUHAN CORPORATION, priority 2012, dated 2016).
